Results taken from PubChem BioAssay (NCI).
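Exposure lasted 48 hours, with cells grown in 96-well plates and compounds tested at five concentrations. GI50: concentration for 50% inhibition of growth. At the TGI there is no net growth.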

Experiments:
Assay in all cases: DTP human tumour cell line panel, 48 h
[1] = system: 786-0 renal
[2] = system: A498 renal
[3] = system: A549 NSCLC
[4] = system: ACHN renal
[5] = system: BT-549 breast
[6] = system: CAKI-1 renal
[7] = system: COLO 205 colon
[8] = system: DU-145 prostate
[9] = system: EKVX NSCLC
[10] = system: HCC-2998 colon
[11] = system: HCT-116 colon
[12] = system: HCT-15 colon
[13] = system: HL-60(TB) leukemia
[14] = system: HOP-62 NSCLC
[15] = system: HS 578T breast
[16] = system: HT29 colon
[17] = system: IGROV1 ovarian
[18] = system: K-562 leukemia
[19] = system: KM12 colon
[20] = system: LOX IMVI melanoma
[21] = system: M14 melanoma
[22] = system: MALME-3M melanoma
[23] = system: MCF7 breast
[24] = system: MDA-MB-231 breast
[25] = system: MDA-MB-435
[26] = system: NCI-H23 lung
[27] = system: NCI-H460 lung
[28] = system: NCI-H522 lung
[29] = system: OVCAR-3 ovarian
[30] = system: OVCAR-4 ovarian
[31] = system: OVCAR-5 ovarian
[32] = system: OVCAR-8 ovarian
[33] = system: RXF 393 renal
[34] = system: SF-268 CNS
[35] = system: SF-295 CNS
[36] = system: SF-539 CNS
[37] = system: SK-MEL-2 melanoma
[38] = system: SK-MEL-28 melanoma
[39] = system: SK-MEL-5 melanoma
[40] = system: SK-OV-3 ovarian
[41] = system: SN12C renal
[42] = system: SNB-19 CNS
[43] = system: SNB-75 CNS
[44] = system: SW-620 colon
[45] = system: T-47D breast
[46] = system: TK-10 renal
[47] = system: U251 CNS
[48] = system: UACC-62 melanoma

CC1=C([Se]CC(OC(=O)[C@@H](CSSC(C)(C)C)NC(=O)OC(C)(C)C)C(=O)NC(C)(C)C)C(=O)c2ccccc2C1=O (stereo partly specified) showed a GI50 [1] of 1.65 µM, a TGI [1] of 3.01 µM and a GI50 [2] of 1.42 µM. For the same compound, the TGI [2] was 3.83 µM, the GI50 [3] was 1.28 µM and the TGI [3] was 2.66 µM. It also gave a GI50 [4] of 1.51 µM, a TGI [4] of 2.84 µM and a GI50 [5] of 1.24 µM. The TGI [5] was 2.5 µM, the GI50 [6] was 1.66 µM and the TGI [6] was 3.02 µM. It also gave a GI50 [7] of 1.67 µM, a TGI [7] of 3.15 µM and a GI50 [8] of 1.81 µM. It also gave a TGI [8] of 3.22 µM, a GI50 [9] of 1.51 µM and a TGI [9] of 3.11 µM. For the same compound, the GI50 [10] was 1.54 µM, the TGI [10] was 3.1 µM and the GI50 [11] was 0.49 µM. It also gave a TGI [11] of 1.7 µM, a GI50 [12] of 1.66 µM and a TGI [12] of 3.12 µM. It also gave a GI50 [13] of 0.255 µM, a TGI [13] of 1.23 µM and a GI50 [14] of 0.762 µM. For the same compound, the TGI [14] was 2.81 µM, the GI50 [15] was 1.31 µM and the TGI [15] was 2.69 µM. For the same compound, the GI50 [16] was 2.3 µM, the TGI [16] was 6.3 µM and the GI50 [17] was 1.15 µM. The TGI [17] was 2.36 µM, the GI50 [18] was 1.28 µM and the TGI [18] was 2.62 µM. It also gave a GI50 [19] of 1.26 µM, a TGI [19] of 2.51 µM and a GI50 [20] of 1.47 µM. For the same compound, the TGI [20] was 2.79 µM, the GI50 [21] was 1.26 µM and the TGI [21] was 2.58 µM. The GI50 [22] was 1.18 µM, the TGI [22] was 2.41 µM and the GI50 [23] was 1.46 µM. The TGI [23] was 3.12 µM, the GI50 [24] was 1.45 µM and the TGI [24] was 2.76 µM. It also gave a GI50 [25] of 1.64 µM, a TGI [25] of 3 µM and a GI50 [26] of 1.82 µM. It also gave a TGI [26] of 4.61 µM, a GI50 [27] of 0.364 µM and a TGI [27] of 1.32 µM. It also gave a GI50 [28] of 1.55 µM, a TGI [28] of 2.99 µM and a GI50 [29] of 1.89 µM. The TGI [29] was 3.3 µM, the GI50 [30] was 1.49 µM and the TGI [30] was 2.87 µM. For the same compound, the GI50 [31] was 1.73 µM, the TGI [31] was 3.24 µM and the GI50 [32] was 1.36 µM. The TGI [32] was 2.73 µM, the GI50 [33] was 1.5 µM and the TGI [33] was 2.82 µM. It also gave a GI50 [34] of 1.96 µM, a TGI [34] of 3.39 µM and a GI50 [35] of 1.22 µM. The TGI [35] was 3.19 µM, the GI50 [36] was 1.43 µM and the TGI [36] was 2.74 µM. The GI50 [37] was 1.47 µM, the TGI [37] was 2.88 µM and the GI50 [38] was 1.62 µM. It also gave a TGI [38] of 2.98 µM, a GI50 [39] of 1.59 µM and a TGI [39] of 2.94 µM. It also gave a GI50 [40] of 1.36 µM, a TGI [40] of 2.64 µM and a GI50 [41] of 1.37 µM. For the same compound, the TGI [41] was 2.74 µM, the GI50 [42] was 0.451 µM and the TGI [42] was 1.69 µM. It also gave a GI50 [43] of 1.3 µM, a TGI [43] of 2.59 µM and a GI50 [44] of 1.43 µM. The TGI [44] was 2.73 µM, the GI50 [45] was 1.44 µM and the TGI [45] was 3.48 µM. The GI50 [46] was 1.6 µM, the TGI [46] was 2.95 µM and the GI50 [47] was 0.675 µM. For the same compound, the TGI [47] was 1.94 µM, the GI50 [48] was 1.51 µM and the TGI [48] was 2.84 µM.
